Measured values reported in patent US20240350402A1, “TOPICAL DRUG TREATMENT TO PREVENT OR REDUCE CORNEAL SCARRING” (The Cleveland Clinic Foundation, priority 2021, published 2024).

How the values were obtained:
[1] = test system: α-SMA-positive myofibroblasts; experiment: Alkali burn model: IHC α-SMA-positive stromal area and intensity (ImageJ); format: in vivo, rabbit; conditions: one month
Protocol: Alkali injuries were produced in one eye of rabbits with previously published methods^10 using 1N sodium hydroxide (Sigma, St. Louis, MO) in balanced salt solution (BSS, 0.64% sodium chloride, 0.075% potassium chloride, 0.048% calcium chloride dihydrate, […] magnesium chloride hexahydrate, 0.39% sodium acetate trihydrate, 0.17% sodium citrate dihydrate, pH 7.5, Alcon, H. Worth, TX) and a 5 mm diameter circular Whatman No. 1 filter paper (Cat #1001-6508, Fisher Scientific) wetted with 100 μl of 1N NaOH solution. Following the alkali burn injury, the cornea was irrigated profusely with BSS. Each injured cornea also received one drop of ciprofloxacin (Alcon, Ft. Worth, TX, USA) ten minutes after surgery and four times a day for one week and at least 15 minutes apart from the study medications.
Worth TX), at least 5 minutes apart, or 4) 50 μl of BSS. […]
The area of the α-SMA-positive stroma in mm^2 and the total α-SMA opacity in pixels were quantitated using standardized images obtained with a 10× objective on a Leica DM6B upright microscope equipped with an automated stage and Leica 7000 T camera using the LAS X software (Leica Microsystems, GmbH, Wetzlar, Germany). The means of three central corneal sections were analyzed from each cornea to provide the area of α-SMA-positive stroma and the total α-SMA opacity. The area of α-SMA-positive stroma in mm^2 for each cornea was determined from full diameter and thickness central corneal section images (all converted to 300 DPI, 885 width×500 height, files with identical +50% brightness increase in Photoshop for all images) with the ImageJ 1.53a analysis software using the freehand selection tool to delineate the area(s) of α-SMA-positive staining. […] In these same sections for each cornea, the total α-SMA-positive intensity in pixels was also determined with ImageJ, similarly by using the summation if separate α-SMA-positive areas were present. […]

[2] = test system: rabbit corneas after alkali burn injury; experiment: Alkali burn model: slit lamp opacity area and intensity (ImageJ); format: in vivo; conditions: alkali burn 1N NaOH; topical six times per day, one month; 0.8 mg/ml losartan, 1% prednisolone acetate
Protocol: All animal treatments and care were approved by the Institutional Animal Care and Use Committee (IACUC) at the Cleveland Clinic Foundation (Cleveland, OH, USA) and the Animal Care and Use Review Office of the Department of the Army (Fort Detrick, MD). All rabbits were treated in accordance with the tenets of the ARVO Statement for the Use of Animals in Ophthalmic and Vision Research. Sixteen 10- to 15-week-old female New Zealand White rabbits weighing 2.5 to 3.0 kg each were included in this example. […]
At one month after sodium hydroxide exposure and treatments, with the rabbits under ketamine-xylazine general anesthesia, the eyes were dilated with two drops of 1% tropicamide (Akom Co., Lake Forest, IL) for thirty minutes. […] For each study eye, the total area of opacity was determined by outlining the opacity with the freehand selection tool using ImageJ 1.53a analysis software calibrated to mm^2. The “raw internal density” in pixels for the opacified area in each cornea was also determined using ImageJ. […]

[3] = test system: collagen type IV; experiment: Alkali burn model: IHC collagen type IV intensity in anterior and posterior stroma (ImageJ); format: in vivo, rabbit; conditions: one month
Protocol: Worth, TX) and a 5 mm diameter circular Whatman No. 1 filter paper (Cat #1001-6508, Fisher Scientific) wetted with 100 μl of 1N NaOH solution. Following the alkali burn injury, the cornea was irrigated profusely with BSS. Each injured cornea also received one drop of ciprofloxacin (Alcon, Ft. Worth, TX, USA) ten minutes after surgery and four times a day for one week and at least 15 minutes apart from the study medications. […] Worth TX), at least 5 minutes apart, or 4) 50 μl of BSS. Multiplex immunohistochemistry (IHC) was performed using previously described methods^8 and primary antibodies (Table 7) confirmed by western blotting and IHC to recognize rabbit antigens or isotypic control antibodies (Thermo Fisher Scientific, Waltham, MA), and secondary fluorescent tagged antibodies (Table 7). The collagen type IV antibody (Cat. #AB769, Millipore, Temecula CA) was raised against purified human and bovine collagen type IV that had been affinity purified with human and bovine collagen type IV crosslinked to agarose and cross-absorbed by the manufacturer with human and bovine collagens type I, II, III, V and VI to eliminate cross-reactivity. This collagen type IV antibody was shown previously to bind rabbit collagen IV in IHC,^8,9 and recognizes the alpha-1/alpha-2 chains but not the alpha-3 to alpha-6 chains. The keratocan antibody is raised against peptide […]-OH (SEQ ID NO:1). This marker was used to identify keratocytes in situ. […] All corneas in each group had IHC for collagen type IV. Images from each cornea were converted to uniform 300 DPI, 875×568 pixel, files. […] The staining intensity within each box was determined with the analyze histogram function and the mean of three boxes was the intensity value in the anterior or posterior stroma for that cornea.

[4] = test system: collagen type IV; experiment: -9D PRK model: IHC stromal collagen type IV pixels (ImageJ); format: in vivo, rabbit; conditions: losartan-treated group, one month
Protocol: Twelve female 12- to 15-week-old New Zealand white rabbits weighing 2.5 to 3 kg each were included. Starting 24 hours prior to surgery and continuing 5 days after PRK, all rabbits received 60 mL children's liquid acetaminophen (Johnson & Johnson, Ft. Washington, PA, USA) per 1 L of drinking water. One eye of each rabbit was randomly selected to have −9.0 D (on myopia scale) PRK and received 2 drops of topical 1% proparacaine hydrochloride (Alcon, Fort Worth, TX, USA) prior to the surgery.
No corticosteroids were administered in either group.
Corneal Cryo-Fixation and Sectioning Rabbits were euthanized while under ketamine-xylazine general anesthesia with 100 mg/kg Beuthanasia (Shering-Plough, Kenilworth, NJ, USA) by intravenous injection followed by bilateral pneumothorax. The corneo-scleral rims were removed with sharp Westcott scissors (Fairfield, CT, USA) and 0.12 forceps (Storz, St Louis, MO, USA). […]
All images were converted to 300 DPI 900 pixel width×672 pixel height images with Photoshop 22.1.1 (Adobe, San Jose, CA). The mean pixels of stromal α-SMA or stromal collagen type IV were determined in a 900-pixel wide×235-pixel high rectangle (for either α-SMA or collagen type IV quantitation) with ImageJ in three sections for each cornea using the image panels showing only the color of interest. […]

CCCCc1nc(Cl)c(CO)n1Cc1ccc(-c2ccccc2-c2nn[nH]n2)cc1 [losartan]
total α-SMA area vs vehicle control group [1]: trend
localization of α-SMA-positive myofibroblasts in the stroma ([1]; topical six times per day): confined mostly to the posterior half of the stroma
total opacity intensity in pixels (ImageJ) vs BSS vehicle group [2]: significantly different
COL IV staining intensity in the posterior stroma vs vehicle treatment [3]: significantly different
mean intensity units of collagen type IV in the anterior stroma compared to vehicle treatment [3]: significantly decreased
collagen type IV localization (IHC) [4]: localized primarily to the epithelial basement membrane
